Read-outs that look alike come from different tables or passages of the source.
Tested on: Prostate cancer cells 22RV1
Assay: Experiment on inhibiting 22RV1 cell proliferation (CellTiter-Glo, 7 days)
Format: cell-based
Settings: Homo sapiens, 168 h, 22RV1 cells, 7 days incubation, read-out: IC50 values for inhibition of 22RVI cells
Procedure: Prostate cancer cells 22RV1 were purchased from ATCC, the cell medium was RPMI 1640+10% FBS, and the cells were cultured in an incubator at 37° C. under 5% CO2. On day 1, the cells in the exponential growth phase were collected. With a 1% css-FBS phenol red-free medium, the cell suspension was adjusted to a corresponding concentration, plated at 2000 cells/well and incubated overnight. On day 2, compounds at different concentrations were added, and the plate was placed in the incubator and incubated for further 7 days. After the incubation was completed, according to operation instructions for a CellTiter-Glo kit (Promega, G7573), 50 μL of CellTiter-Glo reagents, which were already pre-melted and equilibrated to room temperature, were added to each well, and the mixtures were uniformly mixed for 2 min using a microplate shaker. The plate was placed at room temperature for 10 min. and then […] signal values were measured using a microplate reader (PHERAstar FSX). The results were processed according to formula (I), the inhibition rate of the compound at different concentrations was calculated, and the IC50 value of the compound with an inhibition rate of 50% was calculated using origin9.2 software with DoseResp function, wherein RLUcompound was the readout of the treated group, and RLUcontrol was the average value of the DMSO vehicle control group.

[1] = cells without a unit of their own (μM)
[2] = cells with nM printed beside the value

| IC50 [1] [µM] | IC50 [2] [µM] | SMILES |
| --- | --- | --- |
| < 1 |  | CC(C)(C(=O)Nc1ccc(C#N)c(F)c1)n1cc(C#CC2CN(c3ccc4c(c3)C(=O)N(C3CCC(=O)NC3=O)C4=O)C2)cn1 (stereo not shown) [Compound 32, N-(4-cyano-3-fluorophenyl)-2-(4-((1-(2-(2,6-dioxopiperidin-3-yl)-1,3-dioxoisoindolin-5-yl)azetidin-3-yl)ethynyl)-1H-pyrazol-1-yl)-2-methylpropanamide] |
|  | < 0.1 | N#Cc1ccc(NC(=O)C2(n3cc(C#CC4CN(c5ccc6c(c5)C(=O)N(C5CCC(=O)NC5=O)C6=O)C4)cn3)CCC2)c2ccccc12 (stereo not shown) [Compound 34, N-(4-cyanonaphthalen-1-yl)-1-(4-((1-(2-(2,6-dioxopiperidin-3-yl)-1,3-dioxoisoindolin-5-yl)azetidin-3-yl)ethynyl)-1H-pyrazol-1-yl)cyclobutane-1-carboxamide] |
|  | < 0.05 | O=C1CCC(N2C(=O)c3ccc(N4CC(C#Cc5cnn(C6(C(=O)Nc7ccc(C(F)(F)F)cc7C7CC7)CCC6)c5)C4)cc3C2=O)C(=O)N1 (stereo not shown) [Compound 35, N-(2-cyclopropyl-4-(trifluoromethyl)phenyl)-1-(4-((1-(2-(2,6-dioxopiperidin-3-yl)-1,3-dioxoisoindolin-5-yl)azetidin-3-yl)ethynyl)-1H-pyrazol-1-yl)cyclobutane-1-carboxamide] |
|  | < 0.1 | N#Cc1ccc(NC(=O)C2(n3cc(C#CC4CN(c5ccc6c(c5)C(=O)N(C5CCC(=O)NC5=O)C6=O)C4)cn3)CCC2)cc1C1CC1 (stereo not shown) [Compound 40, N-(4-cyano-3-cyclopropylphenyl)-1-(4-((1-(2-(2,6-dioxopiperidin-3-yl)-1,3-dioxoisoindolin-5-yl)azetidin-3-yl)ethynyl)-1H-pyrazol-1-yl)cyclobutane-1-carboxamide] |
| < 1 |  | CC(C)(C(=O)Nc1ccc(C(F)(F)F)cc1C#N)n1cc(C#CC2CN(c3ccc4c(c3)C(=O)N(C3CCC(=O)NC3=O)C4=O)C2)cn1 (stereo not shown) [Compound 42, N-(2-cyano-4-(trifluoromethyl)phenyl)-2-(4-((1-(2-(2,6-dioxopiperidin-3-yl)-1,3-dioxoisoindolin-5-yl)azetidin-3-yl)ethynyl)-1H-pyrazol-1-yl)-2-methylpropanamide] |
| < 1 |  | CC(C)(C(=O)Nc1ccc(C#N)c2ncccc12)n1cc(C#CC2CN(c3ccc4c(c3)C(=O)N(C3CCC(=O)NC3=O)C4=O)C2)cn1 (stereo not shown) [Compound 43, N-(8-cyanoquinolin-5-yl)-2-(4-((1-(2-(2,6-dioxopiperidin-3-yl)-1,3-dioxoisoindolin-5-yl)azetidin-3-yl)ethynyl)-1H-pyrazol-1-yl)-2-methylpropanamide] |
| < 1 |  | CC(C)(C(=O)Nc1ccc(C#N)cc1C(F)(F)F)n1cc(C#CC2CN(c3ccc4c(c3)C(=O)N(C3CCC(=O)NC3=O)C4=O)C2)cn1 (stereo not shown) [Compound 44, N-(4-cyano-2-(trifluoromethyl)phenyl)-2-(4-((1-(2-(2,6-dioxopiperidin-3-yl)-1,3-dioxoisoindolin-5-yl)azetidin-3-yl)ethynyl)-1H-pyrazol-1-yl)-2-methylpropanamide] |
|  | < 0.05 | N#Cc1ccc(NC(=O)C2(n3cc(C#CC4CN(c5ccc6c(c5)C(=O)N(C5CCC(=O)NC5=O)C6=O)C4)cn3)CCC2)c(C2CC2)c1 (stereo not shown) [Compound 45, N-(4-cyano-2-cyclopropylphenyl)-1-(4-((1-(2-(2,6-dioxopiperidin-3-yl)-1,3-dioxoisoindolin-5-yl)azetidin-3-yl)ethynyl)-1H-pyrazol-1-yl)cyclobutane-1-carboxamide] |
|  | < 0.1 | N#Cc1ccc(NC(=O)C2(n3cc(C#CC4CN(c5ccc6c(c5)C(=O)N(C5CCC(=O)NC5=O)C6=O)C4)cn3)CCC2)cc1N1CCCC1 (stereo not shown) [Compound 50, N-(4-cyano-3-(pyrrolidin-1-yl)phenyl)-1-(4-((1-(2-(2,6-dioxopiperidin-3-yl)-1,3-dioxoisoindolin-5-yl)azetidin-3-yl)ethynyl)-1H-pyrazol-1-yl)cyclobutane-1-carboxamide] |
|  | < 0.05 | CC(C)(C(=O)Nc1ccc(C(F)(F)F)cc1-n1cccn1)n1cc(C#CC2CN(c3ccc4c(c3)C(=O)N(C3CCC(=O)NC3=O)C4=O)C2)cn1 (stereo not shown) [Compound 51, N-(2-(1H-pyrazol-1-yl)-4-(trifluoromethyl)phenyl)-2-(4-((1-(2-(2,6-dioxopiperidin-3-yl)-1,3-dioxoisoindolin-5-yl)azetidin-3-yl)ethynyl)-1H-pyrazol-1-yl)-2-methylpropanamide] |

Second part, the compound before the results:

| SMILES | IC50 [1] [µM] | IC50 [2] [µM] |
| --- | --- | --- |
| CC(C)(C(=O)Nc1ccc(C#N)c(C(F)(F)F)c1)n1cc(C#CC2CN(c3cc4c(cc3F)C(=O)N(C3CCC(=O)NC3=O)C4=O)C2)cn1 (stereo not shown) [Compound 3] | < 1 |  |
| Cc1cc(NC(=O)C(C)(C)n2cc(C#CC3CN(c4ccc5c(c4)C(=O)N(C4CCC(=O)NC4=O)C5=O)C3)cn2)ccc1Cl (stereo not shown) [Compound 16, N-(4-chloro-3-methylphenyl)-2-(4-((1-(2-(2,6-dioxopiperidin-3-yl)-1,3-dioxoisoindolin-5-yl)azetidin-3-yl)ethynyl)-1H-pyrazol-1-yl)-2-methylpropanamide] | < 1 |  |
| CC(C)(C(=O)Nc1ccc(C(F)(F)F)c(Cl)c1)n1cc(C#CC2CN(c3ccc4c(c3)C(=O)N(C3CCC(=O)NC3=O)C4=O)C2)cn1 (stereo not shown) [Compound 17, N-(3-chloro-4-(trifluoromethyl)phenyl)-2-(4-((1-(2-(2,6-dioxopiperidin-3-yl)-1,3-dioxoisoindolin-5-yl)azetidin-3-yl)ethynyl)-1H-pyrazol-1-yl)-2-methylpropanamide] | < 1 |  |
| Cc1ccc(NC(=O)C(C)(C)n2cc(C#CC3CN(c4ccc5c(c4)C(=O)N(C4CCC(=O)NC4=O)C5=O)C3)cn2)cc1Cl (stereo not shown) [Compound 18, N-(3-chloro-4-methylphenyl)-2-(4-((1-(2-(2,6-dioxopiperidin-3-yl)-1,3-dioxoisoindolin-5-yl)azetidin-3-yl)ethynyl)-1H-pyrazol-1-yl)-2-methylpropanamide] | < 1 |  |
| CC(C)(C(=O)Nc1cc(Cl)c(C(F)(F)F)c(Cl)c1)n1cc(C#CC2CN(c3ccc4c(c3)C(=O)N(C3CCC(=O)NC3=O)C4=O)C2)cn1 (stereo not shown) [Compound 22, N-(3,5-dichloro-4-(trifluoromethyl)phenyl)-2-(4-((1-(2-(2,6-dioxopiperidin-3-yl)-1,3-dioxoisoindolin-5-yl)azetidin-3-yl)ethynyl)-1H-pyrazol-1-yl)-2-methylpropanamide] | < 1 |  |
| COc1cc(NC(=O)C(C)(C)n2cc(C#CC3CN(c4ccc5c(c4)C(=O)N(C4CCC(=O)NC4=O)C5=O)C3)cn2)ccc1C#N (stereo not shown) [Compound 23, N-(4-cyano-3-methoxyphenyl)-2-(4-((1-(2-(2,6-dioxopiperidin-3-yl)-1,3-dioxoisoindolin-5-yl)azetidin-3-yl)ethynyl)-1H-pyrazol-1-yl)-2-methylpropanamide] | < 1 |  |
| CC(C)(C(=O)Nc1ccc([N+](=O)[O-])c(Cl)c1)n1cc(C#CC2CN(c3ccc4c(c3)C(=O)N(C3CCC(=O)NC3=O)C4=O)C2)cn1 (stereo not shown) [Compound 25, N-(3-chloro-4-nitrophenyl)-2-(4-((1-(2-(2,6-dioxopiperidin-3-yl)-1,3-dioxoisoindolin-5-yl)azetidin-3-yl)ethynyl)-1H-pyrazol-1-yl)-2-methylpropanamide] | < 1 |  |
| CC(C)(C(=O)Nc1ccc([N+](=O)[O-])c(C(F)(F)F)c1)n1cc(C#CC2CN(c3ccc4c(c3)C(=O)N(C3CCC(=O)NC3=O)C4=O)C2)cn1 (stereo not shown) [Compound 26, 2-(4-((1-(2-(2,6-dioxopiperidin-3-yl)-1,3-dioxoisoindolin-5-yl)azetidin-3-yl)ethynyl)-1H-pyrazol-1-yl)-2-methyl-N-(4-nitro-3-(trifluoromethyl)phenyl)propanamide] | < 1 |  |
| CC(C)(C(=O)Nc1ccc(C#N)cc1F)n1cc(C#CC2CN(c3ccc4c(c3)C(=O)N(C3CCC(=O)NC3=O)C4=O)C2)cn1 (stereo not shown) [Compound 27, N-(4-cyano-2-fluorophenyl)-2-(4-((1-(2-(2,6-dioxopiperidin-3-yl)-1,3-dioxoisoindolin-5-yl)azetidin-3-yl)ethynyl)-1H-pyrazol-1-yl)-2-methylpropanamide] | < 1 |  |
| CCC(CC)(C(=O)Nc1ccc(C#N)c(C(F)(F)F)c1)n1cc(C#CC2CN(c3ccc4c(c3)C(=O)N(C3CCC(=O)NC3=O)C4=O)C2)cn1 (stereo not shown) [Compound 41, N-(4-cyano-3-(trifluoromethyl)phenyl)-2-(4-((1-(2-(2,6-dioxopiperidin-3-yl)-1,3-dioxoisoindolin-5-yl)azetidin-3-yl)ethynyl)-1H-pyrazol-1-yl)-2-ethylbutanamide] |  | < 0.05 |
| CCC(C)(C(=O)Nc1ccc(C#N)c(C(F)(F)F)c1)n1cc(C#CC2CN(c3ccc4c(c3)C(=O)N(C3CCC(=O)NC3=O)C4=O)C2)cn1 (stereo not shown) [Compound 46, N-(4-cyano-3-(trifluoromethyl)phenyl)-2-(4-((1-(2-(2,6-dioxopiperidin-3-yl)-1,3-dioxoisoindolin-S-yl)azetidin-3-yl)ethynyl)-1H-pyrazol-1-yl)-2-methylbutanamide] | < 1 |  |
| N#Cc1ccc(NC(=O)C2(n3cc(C#CC4CN(c5ccc6c(c5)C(=O)N(C5CCC(=O)NC5=O)C6=O)C4)cn3)CCCC2)cc1C(F)(F)F (stereo not shown) [Compound 48, N-(4-cyano-3-(trifluoromethyl)phenyl)-1-(4-((1-(2-(2,6-dioxopiperidin-3-yl)-1,3-dioxoisoindolin-5-yl)azetidin-3-yl)ethynyl)-1H-pyrazol-1-yl)cyclopentane-1-carboxamide] |  | < 0.1 |

— patent publication US20250171417A1, “HETEROCYCLIC DERIVATIVE, AND COMPOSITION AND PHARMACEUTICAL USE THEREOF” (Xizang Haisco Pharmaceutical Co., Ltd., priority 2021, published 2025)
